What is called Km is the concentration of substrate that gives half-maximal velocity.

Results on one compound are retold here after article PMC6296572 (Journal of Genetic Engineering & Biotechnology, 2017).

Structures are written as SMILES.

This assay has as its system laccase from Trichoderma harzianum strain HZN10 (free, purified). Briefly: ABTS oxidation, absorbance at […] nm. The class given is biochemical. The conditions noted are these: free enzyme; ABTS 0.2-2.4 mM; standard assay 0.1 M sodium phosphate pH 6, 25 °C.

For `CCn1c(=NN=c2sc3cc(S(=O)(=O)O)ccc3n2CC)sc2cc(S(=O)(=O)O)ccc21` [ABTS, 2,2′-azino-bis(3-ethylbenzothiazoline-6-sulfonic acid)], the Km was 500 µM.
